Read-outs that look alike come from different tables or passages of the source.
Columns and labels:
[1] = molecular target: T1, Rezeptor (Glykoprotein IIb/IIIa) (Homo sapiens, UniProt P05106+P08514); test: Inhibition of 125I-fibrinogen binding to its receptor on intact gel-filtered human platelets; settings: inhibition of 125I-fibrinogen binding after stimulation with ADP (10µM), read-out: Ki (µM), ADP stimuliert
T1 construct: an intakten, gelfiltrierten Human-Thrombozyten; endogenous in cells; host or cells: intact, gel-filtered human platelets from donor blood, stimulated with ADP (10 µM)
From the text: (§1) Geprüft werden die Verbindungen vor allem auf ihre hemmende Wirkung bei der Blutplättchenaggregation und der Anhaftung von Fibrinogen an Blutplättchen. Verwendet werden gefiltrierte Blutplättchen aus humanem Spenderblut, die mit ADP oder Thrombin aktiviert werden.
Geprüft wird die Hemmung der Bindung von Fibrinogen an seinen Rezeptor (Glykoprotein IIb/IIIa) an intakten, gelfiltrierten Human-Thrombozyten durch die erfindungsgemäßen Verbindungen. Angegeben ist der Ki Wert der Bindungshemmung von ^125I-Fibrinogen nach Stimulierung mit ADP (10µM).

[2] = test system: gelfiltrierter Human-Thrombozyten; test: Inhibition of aggregation of gel-filtered human platelets after ADP or thrombin stimulation; format: cell-based; settings: platelet aggregation
From the text: as §1
Als funktioneller Test wird die Hemmung der Aggregation gelfiltrierter Human-Thrombozyten nach ADP- oder Thrombin-Stimulierung durch die erfindungsgemäßen Verbindungen gemessen. Angegeben ist der IC50-Wert der Hemmung.

[3] = ADP-stimulated, read-out: IC50 (µM), ADP-stimuliert
[4] = thrombin-stimulated, read-out: IC50 (µM), Thrombin-stimuliert

T1 sequence (P08514 32-887 limits assumed): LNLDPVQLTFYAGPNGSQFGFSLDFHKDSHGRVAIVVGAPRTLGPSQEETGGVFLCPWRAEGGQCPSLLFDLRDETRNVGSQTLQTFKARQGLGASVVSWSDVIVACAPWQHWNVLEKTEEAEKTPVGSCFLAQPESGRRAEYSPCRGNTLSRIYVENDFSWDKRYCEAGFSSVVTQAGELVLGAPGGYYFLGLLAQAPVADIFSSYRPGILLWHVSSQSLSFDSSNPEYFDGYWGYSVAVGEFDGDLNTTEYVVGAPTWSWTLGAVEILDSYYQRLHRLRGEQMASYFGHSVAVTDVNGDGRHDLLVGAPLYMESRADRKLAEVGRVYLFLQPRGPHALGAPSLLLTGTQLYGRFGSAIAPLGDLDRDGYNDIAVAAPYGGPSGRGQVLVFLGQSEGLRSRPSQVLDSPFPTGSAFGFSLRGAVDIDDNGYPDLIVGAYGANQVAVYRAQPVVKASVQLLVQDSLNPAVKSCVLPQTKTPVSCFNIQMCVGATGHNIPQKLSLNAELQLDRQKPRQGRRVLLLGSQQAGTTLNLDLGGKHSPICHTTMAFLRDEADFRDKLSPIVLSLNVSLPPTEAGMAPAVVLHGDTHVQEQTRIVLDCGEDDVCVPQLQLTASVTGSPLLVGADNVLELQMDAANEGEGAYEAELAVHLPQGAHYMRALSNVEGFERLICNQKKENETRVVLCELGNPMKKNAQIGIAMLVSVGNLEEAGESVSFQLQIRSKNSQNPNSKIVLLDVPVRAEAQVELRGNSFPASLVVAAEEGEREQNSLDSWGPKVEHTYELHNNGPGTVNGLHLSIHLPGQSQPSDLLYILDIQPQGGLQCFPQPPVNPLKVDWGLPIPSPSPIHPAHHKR
T1 sequence (P08514 891-1039 partner limits assumed): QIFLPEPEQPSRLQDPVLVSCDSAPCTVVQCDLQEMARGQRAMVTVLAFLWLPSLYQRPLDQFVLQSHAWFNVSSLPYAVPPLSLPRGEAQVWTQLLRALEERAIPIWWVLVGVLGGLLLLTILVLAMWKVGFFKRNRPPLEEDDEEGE
T1 sequence (P05106 27-788): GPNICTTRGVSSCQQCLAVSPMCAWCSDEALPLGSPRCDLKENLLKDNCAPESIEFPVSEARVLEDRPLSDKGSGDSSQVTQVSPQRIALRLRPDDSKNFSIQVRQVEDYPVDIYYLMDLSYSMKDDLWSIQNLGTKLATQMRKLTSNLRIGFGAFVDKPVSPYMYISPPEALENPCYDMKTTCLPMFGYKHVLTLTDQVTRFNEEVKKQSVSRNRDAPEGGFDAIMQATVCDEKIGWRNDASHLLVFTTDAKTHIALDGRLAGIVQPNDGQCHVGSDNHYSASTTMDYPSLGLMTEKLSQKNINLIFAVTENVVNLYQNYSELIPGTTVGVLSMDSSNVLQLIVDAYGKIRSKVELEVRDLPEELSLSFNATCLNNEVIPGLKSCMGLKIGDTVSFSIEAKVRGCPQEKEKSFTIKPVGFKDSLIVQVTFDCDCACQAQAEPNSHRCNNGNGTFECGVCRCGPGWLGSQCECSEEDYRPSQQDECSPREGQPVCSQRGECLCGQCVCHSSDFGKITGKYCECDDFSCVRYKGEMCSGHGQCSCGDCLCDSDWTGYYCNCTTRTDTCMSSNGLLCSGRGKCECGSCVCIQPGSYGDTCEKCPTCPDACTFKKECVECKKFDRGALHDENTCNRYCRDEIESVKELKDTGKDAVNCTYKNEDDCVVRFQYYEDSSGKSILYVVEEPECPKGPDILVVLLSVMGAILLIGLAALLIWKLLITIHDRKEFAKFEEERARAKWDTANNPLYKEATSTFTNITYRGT

N=C(N)NCCC[C@@H]1NC(=S)N(CC(=O)N[C@@H](CC(=O)O)C(=O)N[C@H](C(=O)O)c2ccccc2)C1=O was tested. Which Ki [1] did it give?
Its Ki is 0.07 µM.

And the IC50 [2, 3]?
The IC50 was 0.5 µM.

What about the IC50 [2, 4] of the same molecule?
The IC50 was 0.1 µM.

How did the Ki [1] turn out when N=C(N)c1ccc(CC2NC(=S)N(CC(=O)N[C@@H](CC(=O)O)C(=O)N[C@H](C(=O)O)c3ccccc3)C2=O)cc1 (stereo partly drawn) [Beispiel 2, (5-(S,R)-(4-Formamidino-benzyl)-4-oxo-2-thioxoimidazolidin-3-yl)-acetyl-L-aspartyl-L-phenylglycin] was run?
Its Ki is 0.2 µM.

What about the IC50 [2, 3] of the same molecule?
The IC50 was 0.55 µM.

And the IC50 [2, 4]?
The IC50 was 0.2 µM.

— patent publication EP0629211B1 (HOECHST AKTIENGESELLSCHAFT, priority 1992, dated 1993)
